Laboratory results as given in patent US20220378714A1, “USE OF CANNABIDIOL PREPARATIONS IN THE TREATMENT OF FRAGILE X SYNDROME” (GW Research Limited, priority 2019, published 2022).

Experiments:
Assay type in all cases: in vivo
[1] = tested on: Fmr1 KO mice; experiment: Behavioral testing (cohort 2), overall conclusion; details: 20 and 200 mg/kg i.p. once daily
Method: Test compounds were evaluated at 2 doses each (20 and 200 mg/kg). Test compounds were injected i.p. (intraperitoneal) acutely at 60 min pre-treatment for audiogenic seizures (cohort 1). For all other behavioural testing, a separate cohort of animals were dosed i.p. once per day for 2 weeks prior to the start of testing and then for 2 weeks during testing, with 60 min pre-treatment on test days (cohort 2).
(§1) 60 male mice were tested at 8 weeks of age. CBD (SYN OR BOT 0.08%) were evaluated at 2 doses each (20 and 200 mg/kg) following once daily intraperitoneal administration, at a dose volume of 10 ml/kg. Compounds were administered for 2 weeks prior to the start of testing and throughout testing.
(§2) On the test day, compounds were administered 60 minutes prior to test.

[2] = tested on: Fmr1 KO mice; experiment: Open field
Method: as §1, §2
The open field chambers are Plexiglas square chambers (27.3×27.3×20.3 cm; Med Associates Inc., St Albans, Vt.) surrounded by infrared photo beams (16×16×16) to measure horizontal and vertical activity. On the day of testing, mice were brought to the activity experimental room for acclimation to the conditions at least 1 h prior to testing. After a 60 minute pretreatment time, mice were placed in the center of an open field activity box for a 60 minute test period. After the completion of the test, mice were placed back in their home cage.
The time courses for locomotor and rearing activities were presented in 5-minute bins during the 60 minute test. Total distance traveled, and numbers of rears were also summed during the 60 minute test.

[3] = tested on: Fmr1 KO mice; experiment: Audiogenic seizures (cohort 1); details: 200 mg/kg i.p. acute, 60 min pre-treatment, vs vehicle-treated Fmr1 KO
Method: 48 male mice were tested at 3 weeks of age. CBD (SYN OR BOT 0.08%) were tested at 2 doses each (20 and 200 mg/kg) following acute intraperitoneal administration at a dose volume of 10 ml/kg. Compounds were administered 60 minutes prior to test.
Following pre-treatment with vehicle or test compound, mice were individually placed in a Plexiglas chamber and allowed to explore for 15 s following which they were exposed to a 125 dB tone for 2 minutes, followed by 1 minute of no sound, and then a further 2 minute tone. The mice were scored based on their response, latency, and seizure intensity:
The following endpoints were reported: • 1. Latency to seize: Time to first seizure (maximum 300 s). […] Latency to respiratory arrest: Time to death (maximum 300 s). Animals that survived received a score of 300 s. • 3. Seizure Score: Maximum score animals obtained during the 5 minute test.

[4] = tested on: Fmr1 KO mice; experiment: Social interaction (three-chamber paradigm); details: higher dose (200 mg/kg i.p.)
Method: as §1, §2
The three-chamber paradigm is used to assess social interest. The Plexiglas testing apparatus consists of two side chambers and a center chamber, each 42.5 cm×17.5 cm×23 cm. […]
Group-housed naïve partner mice (age-matched C3H mice) were habituated to the chamber for 30 minutes the day before testing. […] The doorways were then lifted and the subject was allowed to feely explore all three chambers for 10 min while movement was video-recorded and scored manually for sniffing of the mouse or object. […]
Discrimination percentage for time spent in chambers was calculated as (total time spent in mouse chamber-total time spent in object)/(total time spent in mouse+total time in object chamber)*100 and presented in FIG. 4.
Discrimination percentage for interaction frequency was calculated as (number of interactions with mouse−number of interactions with object)/(total number of interactions with the mouse+the object)*100 and is presented in FIG. 5. […]

For `C=C(C)[C@@H]1CCC(C)=C[C@H]1c1c(O)cc(CCCCC)cc1O` [CBD (SYN), cannabidiol], the “social or memory related behaviors” value [1] was “Neither the botanically derived purified CBD or the synthetic CBD were found to have any significant improvement”, the “total distance traveled during the 60 minute test period” value ([2]; 20 mg/kg i.p. once daily, 60 min pre-treatment) was “traveled significantly more than mice treated with CBD (BOT 0.08%) 20 mg/kg” and the “rearing frequency in 5 min bins: periods in which Fmr1 KO-vehicle treated mice reared significantly more than the treated group” value ([2]; 200 mg/kg i.p. once daily, post-hoc multiple comparisons) was “during minutes 35-40 and during minutes 55-60”. The median seizure score [3] was “This effect was not observed”, the “discrimination percentage for time spent in chambers” value ([4]; Dunn's test vs vehicle-treated Fmr1 KO) was “enhanced discrimination compared to vehicle-treated Fmr1 KO mice” and the “total time spent in the partner mouse chamber” value ([4]; Sidak's test vs Fmr1 KO vehicle) was “spent significantly more time in the partner mouse chamber”.
